In brackets after ≈: the same amount, converted by molar mass. Read-outs that look alike come from different tables or passages of the source.
Key:
[1] = Plasma stability, mouse plasma; conditions: MP = Mouse Plasma
[2] = Plasma stability, plasma from CES1KO mice; conditions: CES1KO = Mouse Plasma from CES1KO mice
[3] = Metabolic stability in swine liver tissue homogenate; type: in vitro ADME; conditions: prodrug 20 μM, 37° C.
Procedure: (§1) The representative Compounds of the Disclosure were screened for metabolic stability in swine jejunum/liver tissue homogenates, following our previously reported methods (Zimmermann et al., J. Med. Chem., 61(9):3918-29 (2018); Tenora et al., J. Med. Chem., 62(7):3524-38 (2019)). In brief, freshly collected tissues were homogenized by probe sonication in 9× volume of 0.1 M potassium phosphate buffer over ice. Post homogenization, prodrugs were spiked at a concentration of 20 μM (in triplicate) and incubated in an orbital shaker at 37° C. for 60 min. Final concentration of DMSO in the incubations was 0.2% v/v. At each time point (0, 30, 60 min), 100 μL of sample was precipitated with 300 μL of methanol containing internal standard (IS; losartan: 0.5 μM). […] After centrifugation, 50 μL of supernatant was diluted with 50 μL of water, vortexed and submitted for analysis. Prodrug disappearance over time was measured using liquid chromatography tandem mass spectrometry (LC-MS/MS).
(§2) The processed supernatants were analyzed on a Thermo Scientific Vanquish UPLC system (equipped with Vanquish autosampler, pumps, and column compartment) hyphenated to TSQ Altis mass spectrometer (Thermo Fisher Scientific Inc., Waltham MA). […] The autosampler was operated at 4° C. […] Peak area ratios obtained from peak area counts of analyte and internal standard were used to measure the disappearance of prodrugs.

[4] = Metabolic stability in swine jejunum (gut) tissue homogenate; type: in vitro ADME; conditions: prodrug 20 μM, 37° C.
Procedure: as §1, §2

| Compound | Plasma Stability (% remaining at 60 min) [1] | Efflux (Efflux; not told) | Plasma Stability (% remaining at 60 min) [2] | Liver stability (% remaining at 60 min) [3] | Efflux (Efflux) | Gut Stability (% remaining at 60 min) [4] | solubility (Solubility) |
| --- | --- | --- | --- | --- | --- | --- | --- |
| Cn1cc(C[C@H](NC(=O)OC2CN3CCC2CC3)C(=O)N[C@@H](CCC(=O)C=[N+]=[N-])C(=O)OC(C)(C)C)c2ccccc21 (stereo partly drawn) [Compound 12d, tert-Butyl (2S)-6-diazo-2-((2S)-3-(1-methyl-1H-indol-3-yl)-2-(((quinuclidin-3-yloxy)carbonyl)amino)propanamido)-5-oxohexanoate] | 10 ± 2 (MP) % | 65.59 | 88 ± 2 (Ces1KO) % | 89 ± 1% | – | – | – |
| COCCOCCOC(=O)[C@H](CCC(=O)C=[N+]=[N-])NC(C)=O [Compound 5m, 2-(2-Methoxyethoxy)ethyl (S)-2-acetamido-6-diazo-5-oxohexanoate] | – | – | – | 57 ± 0% | 5 | 87 ± 2% | – |
| CN(C)CC(=O)N[C@@H](Cc1cccc(F)c1)C(=O)N[C@@H](CCC(=O)C=[N+]=[N-])C(=O)OC(C)(C)C [Compound 21a, tert-Butyl (S)-6-diazo-2-((S)-2-(2-(dimethylamino)acetamido)-3-(3-fluorophenyl)propanamido)-5-oxohexanoate] | – | – | – | 75 ± 4% | 46.71 | – | – |
| CNC(=O)[C@H](CCC(=O)C=[N+]=[N-])NC(=O)[C@H](Cc1c[nH]c2ccccc12)NC(C)=O [Compound 31b, (S)-2-((S)-2-Acetamido-3-(1H-indol-3-yl)propanamido)-6-diazo-N-methyl-5-oxohexanamide] | – | – | – | 103 ± 4% | 1 | 90 ± 2% | – |
| CC(=O)N[C@@H](Cc1c[nH]c2ccccc12)C(=O)N[C@@H](CCC(=O)C=[N+]=[N-])C(=O)OC(CF)CF [Compound 28c, 1,3-Difluoropropan-2-yl (S)-2-((S)-2-acetamido-3-(1H-indol-3-yl)propanamido)-6-diazo-5-oxohexanoate] | – | – | – | 1 ± 0% | 11 | – | – |
| CC(C)(C)OC(=O)[C@H](CCC(=O)C=[N+]=[N-])NC(=O)c1cccnc1 [Compound 5j, tert-Butyl (S)-6-diazo-2-(nicotinamido)-5-oxohexanoate] | – | – | – | 78 ± 1% | – | 104 ± 0% | ~4000 µg/mL (≈ 12 mM) |
| CC(=O)N[C@@H](Cc1c[nH]c2ccccc12)C(=O)N[C@@H](CCC(=O)C=[N+]=[N-])C(=O)OC(C)(C)C [Compound 11a, tert-Butyl (S)-2-((S)-2-acetamido-3-(1H-indol-3-yl)propanamido)-6-diazo-5-oxohexanoate] | 62 ± 1 (MP) % | – | – | 95 ± 3% | 41 | 88 ± 4% | – |
| CCOC(=O)[C@H](CCC(=O)C=[N+]=[N-])NC(C)=O [Compound 5k, Ethyl (S)-2-acetamido-6-diazo-5-oxohexanoate] | – | – | – | 83 ± 2% | 1 | – | – |
| CC(C)(C)OC(=O)[C@H](CCC(=O)C=[N+]=[N-])NC(=O)CNC(=O)CN1CCOCC1 [Compound 14c, tert-Butyl (S)-6-diazo-2-(2-(2-morpholinoacetamido)acetamido)-5-oxohexanoate] | – | – | – | 100 ± 1% | 15 | 96 ± 1% | – |
| CCCCCC(=O)N[C@@H](CCC(=O)C=[N+]=[N-])C(=O)OC(C)C [Compound 5c, Isopropyl (S)-6-diazo-2-hexanamido-5-oxohexanoate] | – | – | – | 0 ± 0% | – | – | ~2000 µg/mL (≈ 6.42 mM) |
| CCCC(=O)N[C@@H](CCC(=O)C=[N+]=[N-])C(=O)OC(C)C [Compound 5b, Isopropyl (S)-2-butyramido-6-diazo-5-oxohexanoate] | – | – | – | 12 ± 1% | – | – | ~5000 µg/mL (≈ 17.6 mM) |
| CC(C)OC(=O)[C@H](CCC(=O)C=[N+]=[N-])NC(=O)[C@H](Cc1c[nH]c2ccccc12)NC(=O)C(Cl)Cl [Compound 8n, Isopropyl (S)-6-diazo-2-((S)-2-(2,2-dichloroacetamido)-3-(1H-indol-3-yl)propanamido)-5-oxohexanoate] | – | – | 69 ± 3 (ces1KO) % | 0 ± 0% | 49 | – | – |
| CC(C)(C)OC(=O)[C@H](CCC(=O)C=[N+]=[N-])NC(=O)C(Cl)Cl [Compound 5i, tert-Butyl (S)-6-diazo-2-(2,2-dichloroacetamido)-5-oxohexanoate] | – | – | – | 97 ± 0% | 1 | 110 ± 2% | – |
| CC(C)OC(=O)[C@H](CCC(=O)C=[N+]=[N-])NC(=O)c1cccnc1 [Compound 5f, Isopropyl (S)-6-diazo-2-(nicotinamido)-5-oxohexanoate] | – | – | – | 0 ± 0% | – | – | ~5000 µg/mL (≈ 15.7 mM) |
| C[C@H](NC(=O)CN(C)C)C(=O)N[C@@H](CCC(=O)C=[N+]=[N-])C(=O)OC(C)(C)C [Compound 13a, tert-Butyl (S)-6-diazo-2-((S)-2-(2-(dimethylamino)acetamido)propanamido)-5-oxohexanoate] | – | – | – | 95 ± 1% | 32 | 99 ± 2% | – |
| COC(=O)[C@H](CCC(=O)C=[N+]=[N-])NC(=O)[C@H](Cc1c[nH]c2ccccc12)NC(=O)CN(C)C [Compound 28a, Methyl (S)-6-diazo-2-((S)-2-(2-(dimethylamino)acetamido)-3-(1H-indol-3-yl)propanamido)-5-oxohexanoate] | – | – | – | 0 ± 0% | 21 | – | – |
| CC(C)C[C@H](NC(=O)CN(C)C)C(=O)N[C@@H](CCC(=O)C=[N+]=[N-])C(=O)OC(C)(C)C [Compound 16a, tert-Butyl (S)-6-diazo-2-((S)-2-(2-(dimethylamino)acetamido)-4-methylpentanamido)-5-oxohexanoate] | – | – | – | 87 ± 0% | 45 | 87 ± 1% | – |
| CC(=O)N[C@@H](CCC(=O)C=[N+]=[N-])C(=O)OC(C)(C)C [Compound 5g, tert-Butyl (S)-2-acetamido-6-diazo-5-oxohexanoate] | – | – | – | 2 ± 0% | 1 | 93 ± 1% | – |
| [2H]C([2H])([2H])OC(=O)[C@H](CCC(=O)C=[N+]=[N-])NC(=O)[C@H](Cc1c[nH]c2ccccc12)NC(C)=O [Compound 28b, Methyl-d3 (S)-2-((S)-2-acetamido-3-(1H-indol-3-yl)propanamido)-6-diazo-5-oxohexanoate] | – | – | – | 2 ± 0% | 10 | – | – |
| CC(C)(C)OC(=O)[C@H](CCC(=O)C=[N+]=[N-])NC(=O)[C@H](Cc1c[nH]c2ccccc12)NC(=O)CN1CCOCC1 [Compound 11c, tert-Butyl (S)-2-((S)-3-(1H-indol-3-yl)-2-(2-morpholinoacetamido)propanamido)-6-diazo-5-oxohexanoate] | – | – | – | 80 ± 2% | 106 | 95 ± 1% | – |
| CN(C)CC(=O)N[C@@H](Cc1cn(C)c2ccccc12)C(=O)N[C@@H](CCC(=O)C=[N+]=[N-])C(=O)OC(C)(C)C [Compound 12a, tert-Butyl (S)-6-diazo-2-((S)-2-(2-(dimethylamino)acetamido)-3-(1-methyl-1H-indol-3-yl)propanamido)-5-oxohexanoate] | – | – | – | 75 ± 1% | 80 | 104 ± 2% | – |
| CC(C)OC(=O)[C@H](CCC(=O)C=[N+]=[N-])NC(=O)CN(C)C [Compound 5d, Isopropyl (S)-6-diazo-2-(2-(dimethylamino)acetamido)-5-oxohexanoate] | – | – | – | 76 ± 0% | 2 | 98 ± 2% | – |
| CN(C)CC(=O)NCCC(=O)N[C@@H](CCC(=O)C=[N+]=[N-])C(=O)OC(C)(C)C [Compound 25a, tert-Butyl (S)-6-diazo-2-(3-(2-(dimethylamino)acetamido)propanamido)-5-oxohexanoate] | – | – | – | 99 ± 1% | 16 | 92 ± 4% | – |
